# According to US10550094B2, “Compounds having antioxidant activity against free radicals and anti-inflammatory activity, and corresponding pharmaceutical or cosmetic compositions for skin care” (GIULIANI S.P.A., priority 2015, dated 2020):
# Columns and labels:
# [1] = HORAC Hydroxyl radical antioxidant capacity assay
# From the text: HORAC Assay: Hydroxyl Antioxidant Capacity In Vitro
# The commercial kit “Oxiselect Hydroxyl Radical Antioxidant Capacity (HORAC) activity assay” (Cell Biolabs).
# The HORAC assay esxpresses the compound antiradical capacity towards the hydroxyl radical OH′ and is based on the oxidation of a fluorescent probe by hydroxyl radicals through a hydrogen transfer process (HAT). Hydroxyl radicals are produced by a radical initiator hydroxyl and by Fenton's reagent, which quenches the fluorescent probe over time. The antioxidants present in the sample block the oxidation by the hydroxyl radical of the fluorescent probe until the antioxidant activity in the sample runs out. The remaining hydroxyl radicals destroy the fluorescence of the fluorescent probe. The antioxidant capacity of the sample is related to the fluorescence decay curve, which usually is represented as the area under the curve (AUC). The AUC is used to quantify the total antioxidant activity of the hydroxyl radical in a sample and is compared to the curve of an antioxidant standard.
# The compounds of the invention were tested at the following concentrations: 13.5 μM; 27 μM, 13.5 mM; 27 mM.
# For comparison purposes, also samples of the compound monofurfurylidene-2.4-sorbitol defined below by the acronym ARGB11, were in this case tested under the same two concentrations, as a reference compound according to EP0345362 mentioned above as the background art of substances with free radical inhibition activity.
# involucrin (IVL) = assay: Skin barrier function protection: involucrin (IVL) gene expression by qRT-PCR in LPS-treated keratinocytes; type: cell-based, human; conditions: 13.5 μM, with LPS, Control + LPS = 1.000
# Method: (§1) The immortalized line of human keratinocytes NCTC2544 is used (Perry V. P. et al., 1957), cultured in sterile flasks ([…]), incubated at 37° C. in a humid atmosphere at 5% CO2 in RPMI culture medium added with bovine fetal serum (FBS), 2 mm glutamine, 1% non-essential amino acids, in the presence of 1% penicillin and streptomycin. The 1:3 split is done every 2 days upon achieving the monolayer by washing with 1×PBS (phosphate buffer without Ca^2+ and Mg^2+) and detachment of cells with a trypsin-EDTA solution at 37° C. for 2 minutes. The cells were kept in culture in 25 cm^3 sterile flasks and incubated at 37° C. in a humid atmosphere at 5% CO2.
# (§2) Negative control: untreated cells in RPMI medium added to 2.5% fetal bovine serum (FBS), 1% non-essential amino acids (NEAA), 1% of a penicillin and streptomycin mixture (Pen-Strep Mix), and kept in (12 well) 25 cm^2 culture plates at 37° C. and 5% CO2.
# (§3) Positive control: cells in RPMI medium added to 2.5% fetal bovine serum (FBS), 1% non-essential amino acids (NEAA), 1% of a penicillin and streptomycin mixture (Pen-Strep Mix) and 10 μg/mL LPS (lipopolysaccharide) and kept in ([…]) 25 cm^2 culture plates at 37° C. and 5% CO2 (in the dark).
# (§4) Study of the Skin Barrier Function Protection
# (§5) The gene expression of the involucrin (IVL) and fillagrin (FLG) markers was evaluated by relative quantitative RT-PCR (quantitative reverse transcription-polymerase chain reaction-qRT-PCR).
# (§6) This assay involved three sequential steps: • extraction of total RNA; • retrotranscription in cDNA; • qRT-PCR.
# (§7) Human keratinocytes NCTC2544 were seeded in 12-well plates at the density of 0.5*10^6 cells/well and incubated until reaching about 80% confluence.
# (§8) Then, the cells were incubated for 16 and 24 hours with the active compounds to be tested and the respective controls at the following concentrations: 13.5 and 27 μM, and admixed (in the well) with 10 μg/ml LPS.
# (§9) The dilutions were prepared starting from 1000× stock in DMSO, sterile-filtered and using RPMI medium added to 2.5% fetal bovine serum (FBS), 1% non-essential amino acids (NEAA), 1% of a penicillin and streptomycin mixture (Pen-Strep Mix).
# (§10) Cells kept in the culture medium alone (RPMI 2.5% FBS) were used as a negative control.
# (§11) Cells in the culture medium alone (RPMI 2.5% FBS) and treated only with 10 μg/mL LPS were used as a positive control.
# (§12) After incubation, the RNA was extracted. Total RNA was extracted from NCTC 2544 cells using the commercial kit Ribospin™ (GeneAllBiotechnology Co., LTD).
# (§13) For RT-PCR amplification, the TaqMan® probe (AppliedBiosystems) method was used. The following TYaqMan probe was used: Hs00846307_s1 (IVL) and Hs00863478_g1 (FLG).
# (§14) GAPDH: Hs99999905_m1 was used as control gene (housekeeping).
# (§15) The data obtained were analyzed according to the method of 2-ΔΔCt and so it was possible to calculate the relative values of expression of the gene of interest, normalized compared to the housekeeping gene and calibrated on the control sample (untreated cells): ΔΔCt=ΔCttarget-housekeeping (control)−ΔCttarget-housekeeping (treated cells)
# (§16) The 2^−ΔΔCt was calculated assuming an amplification efficiency of 100%.
# fillagrin (FLG) = assay: Skin barrier function protection: filaggrin (FLG) gene expression by qRT-PCR in LPS-treated keratinocytes; type: cell-based, human; conditions: 13.5 μM, with LPS, Control + LPS = 1.000
# Method: as §1, §2, §3, §4, §5, §6, §7, §8, §9, §10, §11, §12, §13, §14, §15, §16
# [2] = higher dosages (13.5 μM and 27 μM)
# [3] = lower concentrations 13.5 μM and 27 μM
smiles,measurement,setting,value
"COc1cc(C2OC(CO)C(O)C(C(O)CO)O2)ccc1O (stereo not shown) [Sorbityl vanillinal, sorbityl vanillinal]",HORAC (Hydroxyl Radical Antioxidant Capacity),[1]; 13.5 μM,70.29 μMole GAE/L
same,HORAC (Hydroxyl Radical Antioxidant Capacity),[1]; 27 μM,115.422 μMole GAE/L
same,HORAC (Hydroxyl Radical Antioxidant Capacity),[1]; 13.5 mM,3544.098 μMole GAE/L
same,HORAC (Hydroxyl Radical Antioxidant Capacity),[1]; 27 mM,3261.945 μMole GAE/L
same,HORAC activity compared with reference ARGB11,[1]; [2],higher activity than the selected reference ARGB11
same,HORAC activity compared with reference ARGB11,[1]; [3],higher than the selected reference ARGB11
same,(IVL) 16 h RQ ± SEM,involucrin (IVL),18.347 ± 1.664
same,(FLG) 16 h RQ ± SEM,fillagrin (FLG),4.408 ± 2.683
"CC(=O)OCC1OC(c2ccco2)OC(C(COC(C)=O)OC(C)=O)C1OC(C)=O (stereo not shown) [Tetracetyl sorbityl furfural, tetracetyl sorbityl furfural]",HORAC (Hydroxyl Radical Antioxidant Capacity),[1]; 13.5 μM,797.50 μMole GAE/L
same,HORAC (Hydroxyl Radical Antioxidant Capacity),[1]; 27 μM,171.083 μMole GAE/L
same,HORAC (Hydroxyl Radical Antioxidant Capacity),[1]; 13.5 mM,330.960 μMole GAE/L
same,HORAC (Hydroxyl Radical Antioxidant Capacity),[1]; 27 mM,428.775 μMole GAE/L
same,HORAC activity compared with reference ARGB11,[1]; [2],fully comparable activity
same,HORAC activity compared with reference ARGB11,[1]; [3],higher than the selected reference ARGB11
same,(IVL) 16 h RQ ± SEM,involucrin (IVL),57.282 ± 17.060
same,(FLG) 16 h RQ ± SEM,fillagrin (FLG),11.158 ± 5.679
"OCC(O)C1OC(c2ccccc2)OC(CO)C1O (stereo not shown) [Sorbityl benzal, sorbityl benzal]",HORAC (Hydroxyl Radical Antioxidant Capacity),[1]; 13.5 μM,31.04 μMole GAE/L
same,HORAC (Hydroxyl Radical Antioxidant Capacity),[1]; 27 μM,40.110 μMole GAE/L
same,HORAC (Hydroxyl Radical Antioxidant Capacity),[1]; 13.5 mM,308.497 μMole GAE/L
same,HORAC (Hydroxyl Radical Antioxidant Capacity),[1]; 27 mM,408.795 μMole GAE/L
same,HORAC activity compared with reference ARGB11,[1]; [2],fully comparable activity
same,HORAC activity compared with reference ARGB11,[1]; [3],fully comparable activity
same,(IVL) 16 h RQ ± SEM,involucrin (IVL),6.646 ± 1.733
same,(FLG) 16 h RQ ± SEM,fillagrin (FLG),16.971 ± 2.987
"OCC1OC(c2ccco2)OC(CO)C1O (stereo not shown) [Xylitil furfural, xylitil furfural]",HORAC (Hydroxyl Radical Antioxidant Capacity),[1]; 13.5 μM,418.69 μMole GAE/L
same,HORAC (Hydroxyl Radical Antioxidant Capacity),[1]; 27 μM,524.692 μMole GAE/L
same,HORAC (Hydroxyl Radical Antioxidant Capacity),[1]; 13.5 mM,897.479 μMole GAE/L
same,HORAC (Hydroxyl Radical Antioxidant Capacity),[1]; 27 mM,1242.582 μMole GAE/L
same,HORAC activity compared with reference ARGB11,[1]; [2],higher activity than the selected reference ARGB11
same,HORAC activity compared with reference ARGB11,[1]; [3],higher than the selected reference ARGB11
same,(IVL) 16 h RQ ± SEM,involucrin (IVL),60.653 ± 14.549
same,(FLG) 16 h RQ ± SEM,fillagrin (FLG),64.669 ± 6.930
"O=C(OCC1OC(c2ccco2)OC(C(COC(=O)c2ccccc2)OC(=O)c2ccccc2)C1OC(=O)c1ccccc1)c1ccccc1 (stereo not shown) [Tetrabenzoyl sorbityl furfural, tetrabenzoyl sorbityl furfural]",HORAC (Hydroxyl Radical Antioxidant Capacity),[1]; 13.5 μM,37.65 μMole GAE/L
same,HORAC (Hydroxyl Radical Antioxidant Capacity),[1]; 27 μM,41.485 μMole GAE/L
same,HORAC (Hydroxyl Radical Antioxidant Capacity),[1]; 13.5 mM,300.856 μMole GAE/L
same,HORAC (Hydroxyl Radical Antioxidant Capacity),[1]; 27 mM,211.479 μMole GAE/L
same,HORAC activity compared with reference ARGB11,[1]; [2],fully comparable activity
same,HORAC activity compared with reference ARGB11,[1]; [3],fully comparable activity
same,(IVL) 16 h RQ ± SEM,involucrin (IVL),9.563 ± 1.159
same,(FLG) 16 h RQ ± SEM,fillagrin (FLG),22.864 ± 7.892
